Laboratory results taken from PMC4297936 (Redox Biology, 2014).
pIC50: −log10 of the molar value.

Legend:
[1] = molecular target: T1, mitochondrial complex I (NADH: ubiquinone oxidoreductase) (Mus musculus, UniProt P03888+Q91WD5+Q9DC70); assay: NADH: ubiquinone oxidoreductase activity; format: biochemical
[2] = molecular target: mitochondrial complex II (succinate: ubiquinone oxidoreductase) (Mus musculus, UniProt Q8K2B3+Q9CQA3+Q9CXV1+Q9CZB0); assay: succinate: ubiquinone oxidoreductase activity, DCPIP reduction; format: biochemical
[3] = molecular target: T1, mitochondrial complex I (NADH: ubiquinone oxidoreductase); assay: NADH: ubiquinone oxidoreductase activity; format: cell-based; conditions: read-out: % inhibition at 20 μM

mitochondrial complex II (succinate: ubiquinone oxidoreductase), sequence (Q8K2B3 43-664): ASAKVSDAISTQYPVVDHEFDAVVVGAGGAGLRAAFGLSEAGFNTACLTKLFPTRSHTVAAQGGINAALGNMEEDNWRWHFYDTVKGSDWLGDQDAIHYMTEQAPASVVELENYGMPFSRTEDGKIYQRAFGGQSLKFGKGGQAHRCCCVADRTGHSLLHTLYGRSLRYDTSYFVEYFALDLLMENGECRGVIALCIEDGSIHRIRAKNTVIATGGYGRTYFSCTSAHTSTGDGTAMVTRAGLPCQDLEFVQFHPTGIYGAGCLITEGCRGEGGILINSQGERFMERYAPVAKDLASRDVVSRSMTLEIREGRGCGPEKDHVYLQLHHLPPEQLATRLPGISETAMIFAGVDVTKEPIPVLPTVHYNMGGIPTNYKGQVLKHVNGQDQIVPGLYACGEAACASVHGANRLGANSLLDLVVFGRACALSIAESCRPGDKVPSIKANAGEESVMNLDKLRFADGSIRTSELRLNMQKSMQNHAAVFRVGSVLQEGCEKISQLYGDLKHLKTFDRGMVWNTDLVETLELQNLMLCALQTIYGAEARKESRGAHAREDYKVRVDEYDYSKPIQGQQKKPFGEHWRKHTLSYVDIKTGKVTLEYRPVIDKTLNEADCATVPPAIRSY
mitochondrial complex II (succinate: ubiquinone oxidoreductase), sequence (Q9CQA3 31-282): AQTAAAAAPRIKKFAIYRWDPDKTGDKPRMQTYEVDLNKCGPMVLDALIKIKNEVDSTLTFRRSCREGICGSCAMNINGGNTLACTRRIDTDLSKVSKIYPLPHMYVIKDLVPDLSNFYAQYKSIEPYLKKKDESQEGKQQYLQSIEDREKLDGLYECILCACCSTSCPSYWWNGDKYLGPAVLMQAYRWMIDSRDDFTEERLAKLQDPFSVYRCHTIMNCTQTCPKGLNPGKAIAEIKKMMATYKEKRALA
mitochondrial complex II (succinate: ubiquinone oxidoreductase), sequence (Q9CZB0 30-169): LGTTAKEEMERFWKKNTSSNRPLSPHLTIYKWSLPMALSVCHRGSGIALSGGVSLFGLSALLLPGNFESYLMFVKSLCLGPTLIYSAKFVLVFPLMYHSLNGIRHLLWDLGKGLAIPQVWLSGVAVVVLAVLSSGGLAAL
mitochondrial complex II (succinate: ubiquinone oxidoreductase), sequence (Q9CXV1 57-159): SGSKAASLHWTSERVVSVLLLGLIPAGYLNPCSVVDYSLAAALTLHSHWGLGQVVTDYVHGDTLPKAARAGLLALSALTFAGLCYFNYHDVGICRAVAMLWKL

With `O=C1Nc2ccc(Cl)cc2[C@@](C#CC2CC2)(C(F)(F)F)O1` [EFV, efavirenz] as the compound, how does the pIC50 [1] read?
Its pIC50 is about 4.52.

How did the pIC50 [2] turn out when `NN` [HzN, hydrazine] was run?
The pIC50 was about 4.52.

`C=C(C)[C@H]1Cc2c(ccc3c2O[C@@H]2COc4cc(OC)c(OC)cc4[C@@H]2C3=O)O1` [ROT, rotenone] was tested. Which inhibition at 20 µM [3] did it give?
The inhibition at 20 µM was about 50%.
